What was measured:
[1] = system: human Tcf7 promoter in EGFP-C1-AR overexpressing HEK293FT cells; conditions: AR-transfected HEK293FT, 24 h, 500 ng/mL testosterone or 50 nM DHT; AR dependent (FIG. 7E)
Method: WT or mutated human Tcf7 promoter sequence of one kb upstream from its transcriptional start site was cloned into the pMCS-Red Firefly Luciferase vector (Thermo Fisher). Mutants lacked individual (“Mut 1-4”) or all putative AR binding sites. Briefly, 40,000 HEK293FT cells were grown on a 96 well plate at 80% confluence. […] Renilla luciferase gene expression was used to ensure transfection efficiency (Thermo Fisher). Twenty four hours after transfection, cells were treated with 500 ng/ml testosterone or 50 nM DHT for another 24 hours. Cells were then harvested and luciferase activity was analyzed by using Dual-Luciferase Reporter Assay System (Promega).

[2] = system: AR-overexpressing Jurkat cells; conditions: 100 nM, prolonged stimulation over 9 days (FIG. 14B)
Method: Empty vector and androgen receptor-expressing Jurkat cells were seeded into six well plates (Gibco) at 2×10^5 cells per well and treated with 100 nM testosterone (Sigma) or DHT (Millipore), alongside methanol vehicle control (Thermo Fisher). Every three days, cells were counted using the BioRad TC20 automated cell counter, passaged, and re-stimulated with the same androgen concentrations over a time course of 3, 6, and 9 days.

[3] = system: MB49 mouse urothelial carcinoma cells; test: MB49 tumor growth in WT mice under daily vehicle or enzalutamide; assay type: in vivo; conditions: male WT mice, MB49 subcutaneous; enzalutamide 25 mg/kg daily oral gavage from Day 5 vs vehicle (FIG. 5J)
Method: MB49 (a gift from C. Voelkel-Johnson from the Medical University of South Carolina) and BKL171 mouse urothelial carcinoma cells were cultured in Dulbecco's modified Eagle's medium with 10% heat-inactivated fetal bovine serum and 1% penicillin/streptomycin. 5×10^5 tumor cells were resuspended in 100 μL ice cold PBS for subcutaneous injection into the right flank of a mouse. For antibody-mediated T cell depletion experiments, mice were injected intraperitoneally with 200 μg of anti-mouse CD4 (Clone GK1.5, BioXCell) and/or CD8 neutralizing antibodies (Clone 53-6.7, BioXCell), followed by 100 μg thereafter on the indicated days. For experiments involving enzalutamide, mice were treated daily with either vehicle control or enzalutamide (25 mg/kg) in 1% carboxymethylcellulose with 0.1% Tween 80 and 2.5% DMSO through oral gavage starting on Day 5 post MB49 subcutaneous injection. Tumor surface area (width×length mm^2) was measured using an electronic caliper starting on Day 4 post implantation.

[4] = system: CD8+ T cells (Tcf7, Ar transcripts); test: qPCR of naïve CD8+ T cells stimulated with testosterone, type I IFN or both; assay type: cell-based, mouse
Method: Mouse spleens and tumors were mechanically disrupted, with the latter additionally subjected to digestion with 1 mg/mL Collagenase D (Roche) for 30 min at 37° C. while shaken at 125 rpm. Excess volume of ice-cold PBS with 2% bovine serum albumin was used to inactivate the enzymatic activity. Red Blood Cell Lysis Buffer (BioLegend) was utilized on tissues before they were passed through 70 µm filters to prepare single cell suspensions. For cytokine production experiments, cells were re-stimulated by 50 ng/mL PMA (Sigma), 1 μg/mL Ionomycin (Sigma) and 1× Brefeldin A (BioLegend) in a 48-well plate for 2 hours at 37° C. For in vitro cultures, purified CD8^+ T cells were left untreated or stimulated with 50 ng/mL testosterone (Sigma) and/or 50 U/mL mouse IFN alpha A (PBL Assay Science). Cells were stained at 4° C. with eFluor506 fixable viability dye for 10 minutes (Invitrogen), followed by extracellular surface markers and FcR block concurrently for 30 minutes. All intracellular staining was performed using the Foxp3 transcription factor staining kit (Invitrogen) according to the manufacturer's instructions. […]
RNA was extracted from FACS/MACS-isolated CD8^+ T cells and reverse-transcribed using RNeasy Micro Kit (Qiagen) and SuperScript™ IV VILO™ Master Mix with ezDNase™ Enzyme (ThermoFisher Scientific), respectively. Quantitative PCR was performed with the following primers: […]

| Compound | Tcf7 promoter activity (luciferase) [1] | proliferation [2] | tumor growth [3] | Ar expression (qPCR) ([4]; female CD8+ T cells, testosterone (FIG. 7D)) | Tcf7 expression (qPCR) ([4]; male CD8+ T cells, acute testosterone exposure, 6 hours (FIG. 7D)) |
| --- | --- | --- | --- | --- | --- |
| C[C@]12CCC(=O)C[C@@H]1CC[C@@H]1[C@@H]2CC[C@]2(C)[C@@H](O)CC[C@@H]12 [DHT, dihydrotestosterone] | stimulated | decreased proliferation |  |  |  |
| CNC(=O)c1ccc(N2C(=S)N(c3ccc(C#N)c(C(F)(F)F)c3)C(=O)C2(C)C)cc1F [enzalutamide] |  |  | partial protection against tumor growth |  |  |
| C[C@]12CC[C@H]3[C@@H](CCC4=CC(=O)CC[C@@]43C)[C@@H]1CC[C@@H]2O [testosterone] | stimulated | decreased proliferation |  | induction of Ar expression | significantly increased |
